# Measurements taken from ChEMBL document CHEMBL5137015, “Design, synthesis, and evaluation of a novel series of mono-indolylbenzoquinones derivatives for the potential treatment of breast cancer” (Eur J Med Chem, 2022).
# The source made the active and inactive calls. The rule behind the calls is not given here.
# Tests used:
# [1] = system: MDA-MB-231; test: Induction of apoptosis in human MDA-MB-231 cells assessed as deep cytoplasm at 1 uM incubated for 24 hrs by transmission electron microscopic analysis; format: functional, cell-based
# [2] = system: MDA-MB-231; test: Induction of apoptosis in human MDA-MB-231 cells assessed as increase in Bcl-2 protein expression at 1 uM incubated for 24 hrs by Western blot analysis; format: functional, cell-based
# [3] = system: MDA-MB-231; test: Induction of apoptosis in human MDA-MB-231 cells assessed as increase in Bax protein expression at 1 uM incubated for 24 hrs by Western blot analysis; format: functional, cell-based
# [4] = system: MDA-MB-231; test: Induction of apoptosis in human MDA-MB-231 cells assessed as decrease in Bcl-2/Bax ratio at 0.5 to 3 times of IC50 concentration by Western blot analysis; format: functional, cell-based
# [5] = Acute toxicity in mouse assessed as death rate ratio at 378 mg/kg, ip measured over 14 days; format: organism-based; settings: in vivo, 336 h, time 14 day
# [6] = system: Mus musculus; test: Protection of Balb/c mouse spleen implanted with mouse 4T1 cells at 50 mg/kg administered intratumorally every four days for 14 days in the presence of liquid cyanoacrylate; format: functional, organism-based; settings: route it(Intratumoral), time 14.0 day
# [7] = system: 4T1; test: Antitumor activity against mouse 4T1 cells implanted in Balb/c mouse assessed as nuclei disappearance at 50 mg/kg administered intratumorally every four days for 14 days in the presence of liquid cyanoacrylate; format: functional, organism-based; settings: route it(Intratumoral), time 14.0 day
# [8] = system: 4T1; test: Antitumor activity against mouse 4T1 cells xenografted in Balb/c mouse assessed as tumor growth inhibition at 50 mg/kg administered intratumorally every four days for 14 days; format: functional; set-up: scale not given: the % may be the effect or the level left; settings: route it(Intratumoral), time 14 day
# [9] = Toxicity in Balb/c mouse implanted with mouse 4T1 cells assessed as lung lesions at 50 mg/kg, ip administered every two days for 14 days by H&E staining based histopathological analysis; format: organism-based; settings: in vivo, 336 h, time 14 day
# [10] = Toxicity in Balb/c mouse implanted with mouse 4T1 cells assessed as liver lesions at 50 mg/kg administered intratumorally every four days for 14 days by H&E staining based histopathological analysis; format: organism-based; settings: in vivo, other, 336 h, route it(Intratumoral), time 14 day
# [11] = system: 4T1; test: Antitumor activity against mouse 4T1 cells implanted in Balb/c mouse assessed as TUNEL positive cells at 50 mg/kg administered intratumorally every four days for 14 days by TUNEL staining analysis (reference value: 6.55%); format: functional; settings: route it(Intratumoral), time 14 day
# [12] = Toxicity in Balb/c mouse xenografted with mouse 4T1 cells assessed as heart lesions at 200 mg/kg administered topically over the tumor surface every two days for 14 days in the presence of cyanoacrylate by H&E staining based histopathological analysis; format: organism-based; settings: in vivo, topical_or_ocular, 336 h, route top, time 14 day
# [13] = Toxicity in Balb/c mouse xenografted with mouse 4T1 cells assessed as kidney lesions at 200 mg/kg administered topically over the tumor surface every two days for 14 days in the presence of cyanoacrylate by H&E staining based histopathological analysis; format: organism-based; settings: in vivo, topical_or_ocular, 336 h, route top, time 14 day
# [14] = system: 4T1; test: Antitumor activity against mouse 4T1 cells xenografted in Balb/c mouse assessed as TUNEL positive cells at 200 mg/kg administered topically over the tumor surface every two days for 14 days in the presence of cyanoacrylate by TUNEL staining analysis (reference value: 21.78%); format: functional; settings: route top, time 14 day
# [15] = Drug metabolism in Balb/c mouse tumor implanted with mouse 4T1 cells assessed as dechlorination of parent compound causing metabolite formation by LC-MS analysis; format: ADME, tissue-based, Neoplasm
compound,measurement,setting,value
Cc1[nH]c2ccccc2c1C1=C(Cl)C(=O)C(Cl)=C(N2CCOCC2)C1=O,Activity,[1],Active
same,Activity,[2],Active
same,Activity,[3],Active
same,Activity,[4],Active
same,Ratio,[5],0.5
same,Activity,[6],Active
same,Activity,[7],Active
same,Activity,[8],24.6%
same,Activity,[9],Non-Toxic
same,Activity,[10],Non-Toxic
same,Activity,[11],91.48%
same,Activity,[12],Non-Toxic
same,Activity,[13],Non-Toxic
same,Activity,[14],64.71%
same,Drug metabolism,[15],Metabolite_Detected
